Columns and labels:
Hippocampal neurons = test: Western blot of VGF protein after BDNF treatment; assay type: cell-based, rat
From the text: The products of the genes induced following learning may regulate neuronal plasticity at the single-cell level. VGF, like BDNF, is a secreted polypeptide and thus may be relevant for intercellular communication. A functional role for VGF in synaptic plasticity was thus investigated. To determine whether BDNF-induced transcriptional changes of VGF were accompanied by translational alterations, VGF levels were examined following BDNF treatment by western blot analysis. VGF, migrating as a doublet with an apparent molecular weight of 85-90 kD, increased by 1.5-fold within 3 hours of BDNF exposure. VGF protein levels were maximal at 12 hours and remained elevated for 48 hours of continuous BDNF application. Consequently, increased VGF mRNA levels after 3 hours BDNF treatment were associated with enhanced protein translation. VGF protein processing occurs in both neurons and neuroendocrine cells (Trani et al. (1995) J. Neurochem. 65:2441-2449; Salton et al. (2000) supra). The localization of VGF in dissociated hippocampal cultures was examined using a C-terminal antibody (R-15) which labeled both the soma and neurites indicating translocation to the neuronal processes. The expression of VGF was similar to that previously observed in primary neuronal cultures (Benson and Salton (1996) Brain Res. Dev. Brain Res. 96:219-228) and was punctate in appearance. This pattern is consistent with the regulated release of VGF from large dense core vesicles (Trani et al. (1995) supra; Benson and Salton (1996) supra; Possenti et al. (1999) Endocrinology 140:3727-3735) and indicates a physiological role for the peptide.
BDNF-treated and untreated hippocampal neurons plated in equal numbers were solubilized in lysis buffer (20 mM Tris pH 8, 0.5% Triton X-100, 0.5% SDS, protease inhibitor tablet, 1 mM PMSF, and 0.5 mM vanadate). The protein content was determined with the BCA protein assay kit (Pierce Chemical Co, Rockford, Ill.). […] The immunopositive bands were visualized by chemiluminescence using the ECL™ detection kit (NEN, Boston, Mass.), quantitated on a BIO-RAD Gel Doc and normalized to actin.

[1] = tested on: individual hippocampal cells; test: Single-cell Arc expression (aRNA amplification, real-time RT-PCR) after patch-clamp; assay type: cell-based, rat; settings: BDNF-treated cells, electrophysiologic responders (n=7) vs non-responders (n=9), p<0.05
Description: FIG. 1A presents Arc expression in individual BDNF-treated cells following electrophysiological recordings and aRNA amplification. Arc transcription was measured by real-time RT-PCR and then normalized to internal GAPDH levels. The data are then expressed as a ratio of the average Arc expression in the seven control cells (expression ratio). FIG. 1B presents a correlation of Arc expression ratios to individual cell's synaptic BDNF responses. Average synaptic charge 3 to 5 minutes post-BDNF exposure expressed as a fold increase over baseline (−2 to 0 minute) was plotted against Arc expression ratios shown in FIG. 1A. Each circle represents one BDNF-treated cell. The cell number next to the circle corresponds with the cell number in FIG. 1A. Dashed line depicts a correlation coefficient indicating significance (r=0.66., p<0.005). The data are categorized into two groups of BDNF-treated cells: a cluster of non-responders (shaded) and a spread of responders (clear).
The molecular genetics of differential synaptic responses to BDNF was examined by performing single-cell transcriptional analysis after whole-cell patch-clamp. […] FIG. 1A represents Arc expression in cells exposed to BDNF relative to the average Arc expression in cells not exposed to BDNF (control) as assessed by real-time RT-PCR (expression ratio). […]

Substance: BDNF: neurotrophin, 50 ng/ml, Preprotech; induces synaptic plasticity in hippocampal neurons
- Time VGF protein levels remained elevated (Hippocampal neurons; continuous BDNF application): 48 h
- Time of maximal VGF protein levels (Hippocampal neurons; continuous BDNF application): 12 h
- Increase in VGF protein (Hippocampal neurons; within 3 hours of BDNF exposure, western blot): 1.5 fold
- Increase in Arc expression, responders relative to non-responders [1]: 17 fold
